Measured values as given in ChEMBL document CHEMBL1201862, “PubChem BioAssay data set” (2004).
Activity calls are given as the source filed them.

Columns and labels:
[1] = HEp-2 cell cytotoxicity, dose response, cytotoxicity control for RSV inhibitor project, HTS (AID 2410); type: functional; settings: human respiratory syncytial virus
[2] = target: FAD-linked sulfhydryl oxidase ALR (Homo sapiens, UniProt P55789); assay: inhibitors of human ALR sulfhydryl oxidase, dose response, biochemical, H2O2 detection, luminescence, cherry-pick (AID 493248)
[3] = target: T1, RNA-binding protein pos-1 (Caenorhabditis elegans, UniProt G5EF15); assay: inhibitors of POS-1/mex-3 RNA binding, dose response, biochemical, fluorescence polarization (AID 1964);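 also: purified POS-1 fused to maltose binding protein made in E. coli; potency of compounds blocking POS-1 binding to fluorescent RNA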
T1 sequence (G5EF15 whole entry): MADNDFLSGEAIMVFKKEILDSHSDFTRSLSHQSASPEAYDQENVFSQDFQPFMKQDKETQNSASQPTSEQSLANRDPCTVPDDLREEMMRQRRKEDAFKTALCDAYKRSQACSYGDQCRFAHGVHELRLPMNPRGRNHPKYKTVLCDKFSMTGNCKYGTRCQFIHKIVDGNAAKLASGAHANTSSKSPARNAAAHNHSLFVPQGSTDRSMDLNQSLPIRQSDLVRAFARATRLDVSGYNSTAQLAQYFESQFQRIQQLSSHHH

[4] = target: T2, Zinc finger protein mex-5 (Caenorhabditis elegans, UniProt Q9XUB2); assay: MEX-5/TCR-2 RNA interaction inhibitors, dose response, biochemical, C. elegans, fluorescence polarization (AID 1960)
T2 sequence (Q9XUB2 whole entry): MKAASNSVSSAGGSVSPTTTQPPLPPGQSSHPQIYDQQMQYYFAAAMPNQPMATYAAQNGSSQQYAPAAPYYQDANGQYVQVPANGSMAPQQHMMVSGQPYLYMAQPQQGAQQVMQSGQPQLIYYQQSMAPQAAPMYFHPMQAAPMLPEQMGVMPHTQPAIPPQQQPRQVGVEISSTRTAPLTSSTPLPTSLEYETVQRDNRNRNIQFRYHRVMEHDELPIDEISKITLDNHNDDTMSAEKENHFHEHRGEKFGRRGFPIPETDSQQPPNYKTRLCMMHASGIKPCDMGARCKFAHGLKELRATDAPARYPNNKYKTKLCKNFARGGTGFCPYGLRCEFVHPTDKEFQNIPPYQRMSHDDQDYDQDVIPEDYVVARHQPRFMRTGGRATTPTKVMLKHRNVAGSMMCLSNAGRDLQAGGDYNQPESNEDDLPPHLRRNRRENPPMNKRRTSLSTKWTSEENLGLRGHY

[5] = target: T3, Rac GTPase-activating protein 1 (Homo sapiens, UniProt Q9H0H5); assay: MgcRacGAP GTPase-activating activity inhibitors, confirmation, biochemical, ADP Hunter fluorescence, primary and confirmatory (AID 624330); type: functional
T3 sequence (Q9H0H5 whole entry): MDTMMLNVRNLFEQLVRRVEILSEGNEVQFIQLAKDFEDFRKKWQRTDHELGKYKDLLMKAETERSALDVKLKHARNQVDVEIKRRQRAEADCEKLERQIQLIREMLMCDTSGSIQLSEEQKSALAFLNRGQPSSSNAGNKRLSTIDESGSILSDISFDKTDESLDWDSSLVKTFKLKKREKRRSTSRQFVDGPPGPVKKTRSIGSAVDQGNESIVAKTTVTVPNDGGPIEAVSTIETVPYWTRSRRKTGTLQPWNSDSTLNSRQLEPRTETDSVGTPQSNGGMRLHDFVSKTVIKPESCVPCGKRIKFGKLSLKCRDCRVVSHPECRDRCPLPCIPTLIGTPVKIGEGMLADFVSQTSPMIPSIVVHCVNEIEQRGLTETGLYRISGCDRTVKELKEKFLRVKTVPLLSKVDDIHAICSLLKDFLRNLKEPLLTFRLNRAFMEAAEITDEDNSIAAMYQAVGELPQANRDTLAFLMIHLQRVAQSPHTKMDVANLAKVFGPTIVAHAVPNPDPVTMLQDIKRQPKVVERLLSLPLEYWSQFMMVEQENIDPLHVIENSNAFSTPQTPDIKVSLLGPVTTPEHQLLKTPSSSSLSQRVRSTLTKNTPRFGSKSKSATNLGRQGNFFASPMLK

Cytochrome P450 2C19 = Cytochrome P450 2C19 (Homo sapiens, UniProt P33261); assay: Cytochrome panel assay with activity outcomes. Panel member name: p450-cyp2c19 Compounds with AC50 equal or less than 10 uM are considered active; type: functional
[6] = inhibitors of intracellular T. cruzi replication, confirmation, NIH3T3 host cells, beta-gal luminescence (AID 2044); type: functional, cell-based;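 also: intracellular parasites grown in NIH/3T3 mouse fibroblasts as host cells; luminescent beta-galactosidase reporter signal from transgenic T. cruzi replicating inside host cells; inhibitors lower the luminescence signal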
[7] = cytotoxicity toward NIH3T3 fibroblasts, dose response, counter-screen, cell-based, ATP luminescence, mouse fibroblasts (AID 2010); type: functional;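 also: cells exposed to compound for about 90 hours before reading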

Cytochrome P450 2C19, sequence (P33261 whole entry): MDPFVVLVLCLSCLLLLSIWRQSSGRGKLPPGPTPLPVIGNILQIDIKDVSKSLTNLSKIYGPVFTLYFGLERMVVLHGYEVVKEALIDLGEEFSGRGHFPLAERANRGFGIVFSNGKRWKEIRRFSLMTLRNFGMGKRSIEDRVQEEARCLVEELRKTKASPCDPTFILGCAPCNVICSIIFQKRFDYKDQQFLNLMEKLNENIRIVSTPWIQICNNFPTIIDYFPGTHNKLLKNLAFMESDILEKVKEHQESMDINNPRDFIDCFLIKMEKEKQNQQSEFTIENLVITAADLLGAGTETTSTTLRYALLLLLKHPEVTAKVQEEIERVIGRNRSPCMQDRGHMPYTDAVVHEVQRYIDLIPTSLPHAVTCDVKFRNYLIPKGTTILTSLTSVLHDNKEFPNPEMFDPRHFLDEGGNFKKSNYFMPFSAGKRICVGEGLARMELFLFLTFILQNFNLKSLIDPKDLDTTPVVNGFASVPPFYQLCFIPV
FAD-linked sulfhydryl oxidase ALR, sequence (P55789 whole entry, the tested form may be a part): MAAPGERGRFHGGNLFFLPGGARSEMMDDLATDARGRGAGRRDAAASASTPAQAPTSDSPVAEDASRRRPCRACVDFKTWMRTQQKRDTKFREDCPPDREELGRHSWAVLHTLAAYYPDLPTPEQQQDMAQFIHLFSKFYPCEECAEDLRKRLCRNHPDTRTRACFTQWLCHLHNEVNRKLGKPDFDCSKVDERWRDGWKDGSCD

In the case of `CC(C)(C)OC(=O)NCCCCCNC(=O)c1[nH]cnc1C(=O)N[C@@H](Cc1ccccc1)C(=O)OCc1ccccc1`, the CC50 [1] is reported as 12.5 µM (active).

In the case of `O=C(O)c1cc2ccccc2cc1Nc1ccccc1`, the AC50 [2] is reported as 1.49 µM (active).

In the case of `Cn1c(S)nnc1CSCc1ccc(Cl)cc1`, the AC50 [2] is reported as 8.71 µM (active).

For `CCN1/C(=C2/SC(=S)NC2=O)Sc2ccccc21`, the AC50 [2] was 2.18 µM (active).

With `CN1CCC2(CC1)C(C#N)=C(N)NC(S)=C2C#N` the EC50 [3] was 8.05 µM (active) and the EC50 [4] was 8.53 µM (active).

In the case of `Clc1ccc(OCC#CCN2CCCCCC2)cc1`, the IC50 [5] is reported as 184 µM (active).

For `COc1ccc(N2CCN(c3ncccn3)CC2)cc1`, the IC50 [5] was 82.9 µM (active).

For `CC(C)CC(=O)C[C@H](O)C(Cl)(Cl)Cl`, the AC50 (Cytochrome P450 2C19; read-out: AC50) was 7.94 µM (inconclusive).

With `COc1cc(CN2CCC(C(=O)NC3CCCC3)CC2)cc(Br)c1O` the IC50 [5] was 127 µM (active).

For `CCO[C@H]1OC(C(=O)Nc2ccccc2)=C[C@@H](c2ccc(C(F)(F)F)cc2)[C@@H]1CCCO`, the CC50 [1] was 17.5 µM (active).

With `c1csc(CNc2ccc3c(c2)OCCO3)c1` the IC50 [5] was 46.4 µM (active).

With `CC1(OC(=O)c2ccco2)C(=O)C=C2C=C(c3ccc(C#N)cc3)OC=C2C1=O` (stereo unspecified) the EC50 [3] was 52.2 µM (active) and the EC50 [4] was 28.9 µM (active).

In the case of `CC(C)Cc1nnc(NC(=O)CCC(=O)N2CC(C)CC(C)C2)s1` (stereo unspecified), the EC50 [3] is reported as > 300 µM (not active) and the EC50 [4] is reported as > 300 µM (not active).

For `Nc1ccccc1Nc1cc(-c2ccccc2)nn1-c1cccc(Cl)c1`, the CC50 [1] was 26.3 µM (active), the EC50 [6] was 5.32 µM (active) and the EC50 [7] was > 60 µM (not active).

For `Cc1ccccc1C(=O)Nc1cc(-c2cc(C(C)(C)C)oc2C)nn1C`, the CC50 [1] was 19.7 µM (active).

For `O=C(O)c1ccc(-n2c(/C=C/c3ccccc3)nc3ccccc3c2=O)cc1`, the AC50 [2] was 5.95 µM (active).

In the case of `CCCN(Cc1nnc(-c2ccccc2Cl)o1)C(=O)c1oc2ccccc2c1C`, the CC50 [1] is reported as 19.6 µM (active).

For `C#CCCCO/N=C1/C[C@@H](O)[C@@H](O)[C@@H]2[C@@H]3C(=O)N(Cc4ccccc4)C(=O)[C@H]3CC[C@H]12`, the AC50 (Cytochrome P450 2C19; read-out: AC50) was 5.01 µM (inconclusive).

With `CCOc1cc(/C=N\NC(=O)c2c(C)nc3ccccn23)ccc1O` the IC50 [5] was 76 µM (active).

For `COC(=O)c1cccc(-n2c(C)cc(C=O)c2C)c1C`, the EC50 [3] was > 300 µM (not active) and the EC50 [4] was > 300 µM (not active).

In the case of `Cc1ccc2cccc(S(=O)(=O)N3CCN(c4cccc(Cl)c4)CC3)c2n1`, the CC50 [1] is reported as 46.9 µM (active).

In the case of `Cc1c(C(=O)NCCSCc2c(F)cccc2Cl)cnn1-c1ccc(Cl)cc1`, the CC50 [1] is reported as 16.8 µM (active).

For `N#CC1=C(N)OC2=C(CC/C2=C\c2ccc(F)cc2)C1c1ccc(F)cc1` (stereo unspecified), the CC50 [1] was 8.44 µM (active).

For `Clc1ccccc1C(Nc1ncccn1)Nc1ncccn1`, the AC50 (Cytochrome P450 2C19) was “inconclusive”.

With `CCCCCCCNC(=O)C1(CC2CC(c3ccc(Cl)cc3)=NO2)CCN(C(=O)C2(C)CC2)CC1` (stereo unspecified) the CC50 [1] was 13.5 µM (active).
